In assay [1] the test system is TaQ8GTC0 protein. Kind of assay: Glutathione conjugation activity of the TaQ8GTC0 protein to VLCFAE-inhibiting herbicides (HPLC). It counts as biochemical, wheat (Triticum aestivum). As to the method: All the VLCFAE-inhibiting herbicides used in this example were added to the reaction mixture as acetone solutions. Conjugation reactions to the VLCFAE-inhibiting herbicides were performed in a reaction mixture (total amount: 200 μl) containing 50 μl of 100 mM potassium phosphate buffer (pH 6.8), 10 μl of 1 mM VLCFAE-inhibiting herbicide, 20 μl of 10 mM reduced glutathione (pH 7.0), 6 μl of the TaQ8GTC0 protein (378 ng in total, PBS buffer solution) and 114 μl of PBS buffer, the reaction was conducted at 30° C. for 15 minutes, the reaction product was filtered through a […], and 50 μl of the filtered solution was injected into HPLC. HPLC analysis conditions were as described below.
Apparatus: Agilent 1100 series
Column: CAPCELL PAK C18 AQ 4.6 mm (i.d.)×250 mm (SHISEIDO)
Mobile phase: acetonitrile/distilled water=5/95 (hold for 5 min)→(4 min)→40/60 (hold for 4 min)→(4 min)→90/10 (hold for 8 min)→(1 min)→5/95 (hold for 4 min) (each solvent containing 0.5% acetic acid)
When the activity of glutathione conjugation to VLCFAE-inhibiting herbicides was analyzed, the amount of glutathione conjugates (GS conjugates) produced was determined based on the amount of VLCFAE-inhibiting herbicides decreased in the reaction solution.
In Example 1, the conjugation activity to cafenstrole was determined via quantification of the compound released by the glutathione conjugation of this herbicide. In addition, peaks of GS conjugate of other herbicides (i.e., metolachlor, alachlor, flufenacet, mefenacet, phentolazamide, indanofan, anilofos, and piperophos) were unknown. When analyzing the glutathione conjugation activities to these herbicides, accordingly, glutathione conjugation reactions were performed to produce GS conjugate in the modified conditions (i.e., more amount of enzyme was added or the conjugation reaction was conducted for longer time) in the beginning to produce glutathione conjugates (GS conjugates), and the peaks were identified with LC/MS.

Assay [2] deals with wild-type rice plant (Nipponbare). Kind of assay: Sensitivity of wild-type rice (Nipponbare) to VLCFAE-inhibiting herbicides, gellan gum medium. It is filed as in vivo. The conditions noted are these: Oryza sativa, 168 h. How it is done:
Whether or not a rice plant comprising the TaQ8GTC0 gene introduced therein has VLCFAE-inhibiting herbicide resistance was determined on the basis of a difference in sensitivity of rice between transformant and wild-type. Accordingly, the sensitivity of the wild-type rice plant (Nipponbare) to VLCFAE-inhibiting herbicides used in the glutathione conjugation activity test was examined as described below.
The growth inhibition test was carried out using a gellan gum medium. Hoagland's mix and 3 g of gellan gum were suspended in 1 liter of distilled water and thoroughly dissolved therein by heating in a microwave. A fraction of the resultant (15 ml) was poured in a tubular bottle before it was cooled. When the herbicide (an acetone solution) was to be incorporated thereinto, the herbicide was simultaneously added at the time of filling of the gellan gum medium into the tubular bottle, followed by thorough mixing (final acetone concentration: 0.1%). Rice hulls were soaked in a 50-fold diluted sodium hypochlorite solution (antiformin) (Wako) for approximately 20 minutes and then thoroughly rinsed with water. Sterilized seeds were soaked in distilled water and allowed to stand at 27° C. for germination (for approximately 2 days). Germinating seeds were transferred with the sprout side up to a gellan gum medium containing herbicide (the tubular bottle). Subsequently, these samples, together with a beaker filled with distilled water, were placed in a transparent case, which was then covered with a clear plastic wrap. These samples were grown at 27° C. under fluorescent light illumination (14 hours of a light period and 10 hours of a dark period) for 1 week, the plants were sampled, and the plant heights were then measured. Inhibition of shoot growth was determined by comparison to control plant grown in the absence of herbicide and the concentration required for 50% inhibition (IC50) was determined by the Probit method.

In assay [3] the test system is rice plants comprising the TaQ8GTC1-R gene introduced therein. The experiment in a line: Sensitivity of rice plants comprising the TaQ8GTC1-R gene to pyroxasulfone, gellan gum medium. It is filed as in vivo. The conditions noted are these: strains KLB-872#3-11 and KLB-872#2-4; 10^−8 to 10^−5M. How it is done:
Pyroxasulfone resistance of 2 rice plants strains (KLB-872#3-11 and KLB-872#2-4) was examined via the germination growth inhibitory test using a gellan gum medium. At the outset, Hoagland's mix and 3 g of gellan gum were suspended in 1 liter of distilled water and thoroughly dissolved therein by heating in a microwave. A fraction of the resultant (15 ml) was poured into a tubular bottle before it was cooled (30 ml was injected into the plate). Pyroxasulfone (acetone solution) was simultaneously added at the time of filling of gellan gum medium into the tubular bottle or plate, followed by thorough mixing. Rice hulls were soaked in a 50-fold diluted sodium hypochlorite solution (antiformin) (Wako) for approximately 20 minutes and then thoroughly washed with water. Sterilized seeds were soaked in distilled water and allowed to stand at 27° C. for germination (for approximately 2 days). […] Thereafter, rice seeds that were determined to have BS resistance with the use of root elongation as the indicator were transferred to gellan gum media containing pyroxasulfone (tubal bottles) at the final concentrations of 10^−8, 10^−7, 10^−6, and 10^−5M, respectively. […] These samples were grown at 27° C. under fluorescent light illumination (14 hours of a light period and 10 hours of a dark period) for 4 to 5 days, and the plant heights were then measured. […]

The structures appear in SMILES notation. pIC50: −log10 of the molar value.

`Cn1nc(C(F)(F)F)c(CS(=O)(=O)C2=NOC(C)(C)C2)c1OC(F)F` [Pyroxasulfone, 3-[5-(difluoromethoxy)-1-methyl-3-(trifluoromethyl)pyrazol-4-ylmethylsulfonyl]-4,5-dihydro-5,5-dimethyl-1,2-oxazole]: in assay [1] (378 ng TaQ8GTC0 protein, 10 μl of 1 mM herbicide in 200 μl, 30° C., 15 minutes, mean ± standard deviation), the “Enzyme activity (glutathione conjugation)” value is on record as 11.7 ± 3.7 μmol/mg protein/15 min. Also, in assay [1] (out of 10 nmol pyroxasulfone added to the reaction mixture), the “GS conjugate of pyroxasulfone (M-15) produced” value came out at 4.81 nmol. In addition, the minimal effective concentration in assay [2] (minimal concentration at which growth of wild-type rice is inhibited, read-out: Minimal inhibitory concentration) was found to be 0.075 µM. For the same compound, the pIC50 in assay [2] (shoot growth, 1 week, Probit method, read-out: I50) was 7.32. Moreover, the sensitivity to pyroxasulfone result in assay [3] is on record as “sensitivity equivalent to that of wild-type plants”.

Source of the values: US11198710B2, “Transgenic plant having herbicide resistance” (priority 2016, dated 2021).
